Data taken from ChEMBL document CHEMBL1201862, “PubChem BioAssay data set” (2004).
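Five compound concentrations were applied to cells in 96-well plates for 48 hours; endpoints were derived by simple linear interpolation of the resulting dose-response curve. GI50 is the concentration that inhibits growth by half.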 Calls of active or inactive are those of the source. Rule as the data show it: active = GI50 up to about 1.1 µM and inactive = higher.

Columns and labels:
Experiment in all cases: DTP human tumour cell line panel, 48 h
CCRF-CEM = test system: CCRF-CEM
EKVX = test system: EKVX
HCT-116 = test system: HCT-116
HT-29 = test system: HT-29
IGROV-1 = test system: IGROV-1
K562 = test system: K562
KM-20L2 = test system: KM-20L2
NCI-H460 = test system: NCI-H460
OVCAR-3 = test system: OVCAR-3
OVCAR-4 = test system: OVCAR-4
OVCAR-5 = test system: OVCAR-5
SF-268 = test system: SF-268
SK-MEL-2 = test system: SK-MEL-2
SN12C = test system: SN12C
SR = test system: SR
UACC-257 = test system: UACC-257
HCT-15 = test system: HCT-15

Structure (SMILES)	GI50 (CCRF-CEM)	GI50 (EKVX)	GI50 (HCT-116)	GI50 (HT-29)	GI50 (IGROV-1)	GI50 (K562)	GI50 (KM-20L2)	GI50 (NCI-H460)	GI50 (OVCAR-3)	GI50 (OVCAR-4)	GI50 (OVCAR-5)	GI50 (SF-268)	GI50 (SK-MEL-2)	GI50 (SN12C)	GI50 (SR)	GI50 (UACC-257)	GI50 (HCT-15) [µM]
COC(=O)/C(=N/Nc1cccc(Cl)c1)C(C(=O)C(=O)Nc1cccc(Cl)c1C)c1nc2ccccc2nc1C (configuration not stated)	62.5 µM (inactive)	> 100 µM (inactive)	62.5 µM (inactive)	> 100 µM (inactive)	41.7 µM (inactive)	32.2 µM (inactive)	32 µM (inactive)	48.8 µM (inactive)	> 100 µM (inactive)	68.5 µM (inactive)	24.4 µM (inactive)	> 100 µM (inactive)	38.5 µM (inactive)	60.7 µM (inactive)	90.4 µM (inactive)	> 100 µM (inactive)	–
COC[n+]1cc2cc(OC)c(OC)cc2c2ccc3cc(OC)c(OC)cc3c21	98.2 µM (inactive)	> 100 µM (inactive)	> 100 µM (inactive)	> 100 µM (inactive)	> 100 µM (inactive)	> 100 µM (inactive)	> 100 µM (inactive)	> 100 µM (inactive)	> 100 µM (inactive)	> 100 µM (inactive)	> 100 µM (inactive)	> 100 µM (inactive)	> 100 µM (inactive)	> 100 µM (inactive)	> 10 µM (inactive)	> 100 µM (inactive)	> 100
N#C/C(=C\c1ccc(O)c(O)c1)C(=O)NC1CCC(CC2CCC(NC(=O)/C(C#N)=C/c3ccc(O)c(O)c3)CC2)CC1 (configuration not stated)	0.293 µM (active)	3.48 µM (inactive)	0.233 µM (active)	1.32 µM (inactive)	1.71 µM (inactive)	0.564 µM (active)	1.78 µM (inactive)	0.283 µM (active)	1.37 µM (inactive)	3.32 µM (inactive)	2.08 µM (inactive)	1.93 µM (inactive)	2 µM (inactive)	2.33 µM (inactive)	0.424 µM (active)	2.84 µM (inactive)	0.461
COC(=O)/C(=C/c1ccc(OC)cc1)C(C(=O)O)=C(C)C	> 100 µM (inactive)	> 100 µM (inactive)	> 100 µM (inactive)	> 100 µM (inactive)	> 100 µM (inactive)	> 100 µM (inactive)	> 100 µM (inactive)	> 100 µM (inactive)	> 100 µM (inactive)	–	> 100 µM (inactive)	> 100 µM (inactive)	> 100 µM (inactive)	> 100 µM (inactive)	> 100 µM (inactive)	> 100 µM (inactive)	> 100
COc1ccc(C2NC3=C(CCCC3)N2)cc1	> 100 µM (inactive)	–	64.9 µM (inactive)	42.9 µM (inactive)	> 100 µM (inactive)	–	31.3 µM (inactive)	45 µM (inactive)	71 µM (inactive)	> 100 µM (inactive)	80.2 µM (inactive)	> 100 µM (inactive)	43.8 µM (inactive)	> 100 µM (inactive)	44.8 µM (inactive)	> 100 µM (inactive)	44.8
CCOC(=O)c1cccnc1C(OC(C)=O)OC(C)=O	> 100 µM (inactive)	> 100 µM (inactive)	> 100 µM (inactive)	> 100 µM (inactive)	> 100 µM (inactive)	> 100 µM (inactive)	> 100 µM (inactive)	> 100 µM (inactive)	> 100 µM (inactive)	> 100 µM (inactive)	> 100 µM (inactive)	> 100 µM (inactive)	> 100 µM (inactive)	> 100 µM (inactive)	> 100 µM (inactive)	> 100 µM (inactive)	> 100
C1CN2N3CCCC23C1 (configuration not stated)	> 100 µM (inactive)	> 100 µM (inactive)	> 100 µM (inactive)	> 100 µM (inactive)	> 100 µM (inactive)	> 100 µM (inactive)	> 100 µM (inactive)	> 100 µM (inactive)	> 100 µM (inactive)	> 100 µM (inactive)	> 100 µM (inactive)	> 100 µM (inactive)	> 100 µM (inactive)	> 100 µM (inactive)	> 100 µM (inactive)	> 100 µM (inactive)	> 100
O=C1C(=O)N(c2ccc(Cl)cc2)C(=O)/C(=N/c2cccc3c(=O)[nH][nH]c(=O)c23)C1c1nc2ccccc2o1 (configuration not stated)	> 100 µM (inactive)	> 100 µM (inactive)	> 100 µM (inactive)	> 100 µM (inactive)	> 100 µM (inactive)	> 100 µM (inactive)	> 100 µM (inactive)	> 100 µM (inactive)	> 100 µM (inactive)	> 100 µM (inactive)	> 100 µM (inactive)	> 100 µM (inactive)	> 100 µM (inactive)	> 100 µM (inactive)	> 100 µM (inactive)	> 100 µM (inactive)	> 100
